# Data: article PMC9502528, “Stability Study of Alpinia galanga Constituents and Investigation of Their Membrane Permeability by ChemGPS-NP and the Parallel Artificial Membrane Permeability Assay” (Pharmaceutics, 2022)
# Read-outs that look alike come from different tables or passages of the source.
# Tests used:
# [1] = PAMPA-BBB (parallel artificial membrane permeability assay, porcine polar brain lipid extract); type: in vitro ADME
# Experimental: The test solutions were prepared with DMSO at the concentration of 10.0 mM. These were diluted with PBS buffer pH = 7.4 (PAMPA-BBB) or pH = 6.8 (PAMPA-GI) to obtain the donor solutions (297.0 μL buffer + 3.0 μL DMSO solution) and filtered through Phenex-RC 15 mm, 0.2 μm syringe filters (Gen-Lab Ltd., Budapest, Hungary). A parallel artificial membrane permeability assay (PAMPA) system was used to determine the effective permeability (Pe) for the compounds of interest. Each well of the top plate (96-well polycarbonate-based filter donor plates (Multiscreen™-IP, MAIPN4510, pore size 0.45 μm; Millipore)) was coated with 5 μL of porcine polar brain lipid extract (PBLE) solution (8.0 mg PBLE + 4.0 mg cholesterol dissolved in 300.0 μL n-dodecane) for PAMPA-BBB; or with 5 μL of mixture of 8.0 mg phosphatidylcholine + 4.0 mg cholesterol dissolved in 300.0 μL n-dodecane for PAMPA-GI. Then, 150.0 μL of the filtrate was placed on the membrane. The bottom plate (96-well PTFE acceptor plates (Multiscreen Acceptor Plate, MSSACCEPTOR; Millipore)), was filled with 300.0 μL buffer solution (0.01 M PBS buffer, pH = 7.4). The donor and acceptor plates were fit, and then the sandwich system was incubated at 37 °C for 4 h in a Stat-Fax 2200 (Awareness Technology, Palm City, FL, USA). After the incubation, the PAMPA plates were separated and the compound concentrations in the donor (CD(t)) and acceptor (CA(t)) solutions, as well as in the donor solution at zero time point (CD(0)), were determined by UPLC-DAD. […] At iso-pH conditions (PAMPA-BBB), the effective permeability and the membrane retention of drugs were calculated by the following equation [21]:(1) Pe =−2.303/A(t−τSS)·(VA·VD/VA+VD)·lg[1−(VA+VD/(1−MR)·VD)×(CA(t)/CD(0))], where Pe is the effective permeability coefficient (cm/s), A is the filter area (0.24 cm^2), VD and VA are the volumes in the donor (0.15 cm^3) and acceptor phases (0.30 cm^3), t is the incubation time (s), τSS is the time (s) to reach steady-state (240 s), CD(t) is the concentration (mol/cm^3) of the compound in the donor phase at time t, CD(0) is the concentration (mol/cm^3) of the compound in the donor phase at time 0, and MR is the estimated membrane retention factor (the estimated mole fraction of solute lost to the membrane):(2) MR=1−CD(t)/CD(0)−VA/VDCA(t)/CD(0)
# All experiments were performed in three triplicates on three consecutive days (n = 9).
# [2] = tested on: nitric oxide (NO) production in mouse peritoneal macrophages; design: method as in PMID 15930771; details: cited from earlier work
# [3] = PAMPA-GI of the A. galanga ethyl acetate extract; type: in vitro ADME; details: donor PBS pH 6.8, 37 °C, 4 h, UHPLC-DAD
# Experimental: The test solutions were prepared with DMSO at the concentration of 10.0 mM. These were diluted with PBS buffer pH = 7.4 (PAMPA-BBB) or pH = 6.8 (PAMPA-GI) to obtain the donor solutions (297.0 μL buffer + 3.0 μL DMSO solution) and filtered through Phenex-RC 15 mm, 0.2 μm syringe filters (Gen-Lab Ltd., Budapest, Hungary). A parallel artificial membrane permeability assay (PAMPA) system was used to determine the effective permeability (Pe) for the compounds of interest. Each well of the top plate (96-well polycarbonate-based filter donor plates (Multiscreen™-IP, MAIPN4510, pore size 0.45 μm; Millipore)) was coated with 5 μL of porcine polar brain lipid extract (PBLE) solution (8.0 mg PBLE + 4.0 mg cholesterol dissolved in 300.0 μL n-dodecane) for PAMPA-BBB; or with 5 μL of mixture of 8.0 mg phosphatidylcholine + 4.0 mg cholesterol dissolved in 300.0 μL n-dodecane for PAMPA-GI. Then, 150.0 μL of the filtrate was placed on the membrane. The bottom plate (96-well PTFE acceptor plates (Multiscreen Acceptor Plate, MSSACCEPTOR; Millipore)), was filled with 300.0 μL buffer solution (0.01 M PBS buffer, pH = 7.4). […] After the incubation, the PAMPA plates were separated and the compound concentrations in the donor (CD(t)) and acceptor (CA(t)) solutions, as well as in the donor solution at zero time point (CD(0)), were determined by UPLC-DAD. […]
# [4] = Stability analyses in PBS (pH 7.4) at 37 °C for 4 h, UPLC-DAD; type: physicochemical; details: for percentage difference between the initial and final concentrations: PBS pH 7.4, 37 °C, 4 h, 100 μM; for stability in aqueous media: aqueous media (PBS)
# Experimental: The isolation of 8 compounds (compounds 1, 2, […], 5, 6, 7, 9, and 10) was carried out using flash chromatography and semi-preparative HPLC; the corresponding data is presented in the Supplementary Materials. For stability analyses, the stock solutions were prepared from the ethyl acetate extract (200 mg/mL) and from compounds 1, 2, 4, 5, 6, 7, 9, and 10 dissolved in dimethyl sulfoxide (DMSO) at the concentration of 10.0 mM. These were diluted 100-fold with PBS (Phosphate Buffer Saline; pH = 7.4). The samples were filtered through Phenex-RC 15 mm, 0.2 μm syringe filters (Gen-Lab Ltd., Budapest, Hungary). The solutions were incubated at 37 °C for 4 h; the decomposition was determined by UPLC-DAD. All experiments were performed in triplicates, on three consecutive days ([…]).
# The eight isolated compounds (p-OH-benzaldehyde (1), trans-p-coumaryl-alcohol (2), p-coumaryl-aldehyde (4), galanganol A (5), galanganol B (6), trans-p-acetoxycinnamyl alcohol (7), 1′S-1′-acetoxychavicol acetate (9), and 1′S-1′-acetoxyeugenol acetate (10)) were identified by UHPLC-high-resolution Orbitrap® mass spectrometry (HR-MS) and by NMR spectroscopy; the corresponding data is presented in the Supplementary Materials, while Figure 3 depicts the structures of the isolated compounds. In order to answer the questions raised about the possible conversion and decomposition of the A. galanga constituents during the PAMPA-BBB experiment, investigation of the chemical stability of the isolated compounds was carried out in PBS medium (pH 7.4) at 37 °C for 4 h. For the analysis of the samples acquired in the stability experiments, the aforementioned UHPLC-DAD method that had previously been validated for linearity, precision, and accuracy was utilized (Tables S1 and S2).
# [5] = design: method as in PMID 10564034; details: 5% ethanol-containing aqueous solution at 60 °C; cited from earlier work
# [6] = PAMPA-BBB, pH 7.4, 37 °C, 4 h, Pe in cm/s, n = 9
# [7] = pig, PAMPA, pH 7.4, Table S4 sheet Galangal compounds, PAMPA-BBB, read-out: logPe (converted)
Structure (SMILES),PAMPA-BBB (blood–brain barrier permeability) ([1]; cutoff log Pe −6.0),"Papp at 4 h, 100 µM [1, 7]",nitric oxide (NO) production inhibitory activity [2],percentage difference between the initial and final concentrations [4],stability in aqueous media [4],further results
"O=C/C=C/c1ccc(O)cc1 [Compound 4, p-coumaryl-aldehyde]",,,showed nitric oxide (NO) production inhibitory activities,,,"PAMPA-BBB (blood–brain barrier permeability) ([1]; PAMPA): +; log Pe ([1]; pig, PAMPA, 4 h, 100 µM, pH 7.4): −5.25 ± 0.27; Papp at 4 h, 100 µM ([1]; pig, PAMPA, pH 7.4, logPe): 5.62 ×10⁻⁶ cm/s"
"OC[C@@H](C/C=C/c1ccc(O)cc1)[C@H](O)c1ccc(O)cc1 [Compound 5, galanganol A]",−,0.776 ×10⁻⁶ cm/s,,,,detection in the acceptor solution (PAMPA-GI) [3]: except for compounds 5 and 6
"CC(=O)Oc1ccc(/C=C/CO)cc1 [Compound 7, trans-p-acetoxycinnamyl alcohol]",,31.6 ×10⁻⁶ cm/s,,8.04%,unstable,
"CC(=O)Oc1ccc(/C=C\CO)cc1 [Compound 8a, cis-p-acetoxycinnamyl alcohol]",,31.6 ×10⁻⁶ cm/s,,,,
"C=C[C@H](OC(C)=O)c1ccc(OC(C)=O)cc1 [Compound 9, 1′S-1′-acetoxychavicol acetate]",,39.8 ×10⁻⁶ cm/s,showed nitric oxide (NO) production inhibitory activities,57.78%,unstable,stability in aqueous ethanol [5]: instability
"C=C[C@H](OC(C)=O)c1ccc(OC(C)=O)c(OC)c1 [Compound 10, 1′S-1′-acetoxyeugenol acetate]",,50.1 ×10⁻⁶ cm/s,showed nitric oxide (NO) production inhibitory activities,14.32%,unstable,

# Further lines, with some results ahead:
PAMPA-BBB (blood–brain barrier permeability) ([1]; cutoff log Pe −6.0),"Papp at 4 h, 100 µM [1, 7]",Structure (SMILES),nitric oxide (NO) production inhibitory activity [2],percentage difference between the initial and final concentrations [4],stability in aqueous media [4],further results
+,2.75 ×10⁻⁶ cm/s,"O=Cc1ccc(O)cc1 [Compound 1, p-OH-benzaldehyde]",,,,"log Pe [1, 6]: −5.56 ± 0.07"
+,1.38 ×10⁻⁶ cm/s,"OC/C=C/c1ccc(O)cc1 [Compound 2, trans-p-coumaryl-alcohol]",showed nitric oxide (NO) production inhibitory activities,,,"log Pe [1, 6]: −5.86 ± 0.23"
,1.38 ×10⁻⁶ cm/s,"OC/C=C\c1ccc(O)cc1 [Compound 3a, cis-p-coumaryl-alcohol]",,,,
−,0.776 ×10⁻⁶ cm/s,"OC[C@H](C/C=C/c1ccc(O)cc1)[C@H](O)c1ccc(O)cc1 [Compound 6, galanganol B]",showed nitric oxide (NO) production inhibitory activities,,,"detection in the acceptor solution (PAMPA-GI) [3]: except for compounds 5 and 6; Papp at 4 h, 100 µM ([1]; pig, PAMPA, pH 7.4, PAMPA-BBB, pH 7.4, 37 °C, 4 h, Pe in cm/s, n = 9, read-out: log Pe (converted)): 0.724 ×10⁻⁶ cm/s"
